Experimental findings from ChEMBL document CHEMBL1152465, “Comparative evaluation of the inhibitory activities of a series of pyrimidinedione congeners that inhibit human immunodeficiency virus types 1 and 2” (Antimicrob Agents Chemother, 2008) are described below.

Series [1] relates to Human immunodeficiency virus 2. As to the kind of experiment: Antiviral activity against HIV2 ROD infected in human CEM-SS cells assessed as inhibition of virus-induced cytopathic effect by XTT assay. The series is classed as functional, organism-based, ISOLATE ROD. In general terms: Damage to the host cells serves as the signal in cytopathic effect assays.
The nature of series [2]: Therapeutic index, ratio of TC50 for human CEM-SS cells to EC50 for HIV1 RF infected in human CEM-SS cells. The series is classed as cell-based. The settings on record: read-out: TI.
The nature of series [3]: Therapeutic index, ratio of TC50 for human CEM-SS cells to EC50 for HIV2 ROD infected in human CEM-SS cells. The series is classed as cell-based. The note with it: for TI: cem-ss; for selectivity ratio: CEM-SS cells, read-out: TI.
Series [4] deals with Human immunodeficiency virus type 1 reverse transcriptase (Human immunodeficiency virus 1, UniProt Q72547). Briefly: Inhibition of wild type HIV1 reverse transcriptase assessed as 32P-labeled GMP incorporation into nascent DNA strand.
Series [5] has as its target Human immunodeficiency virus type 1 reverse transcriptase (Human immunodeficiency virus 1, UniProt Q72547, K103N). Briefly: Inhibition of HIV1 reverse transcriptase K103N mutant assessed as 32P-labeled GMP incorporation into nascent DNA strand.
For series [6], the system named is Human immunodeficiency virus 1. As to the kind of experiment: Antiviral activity against HIV1 infected in human HeLa cells expressing CD4-LTR assessed as inhibition of viral entry-related beta galactosidase expression treated for 2 hrs followed by drug wash out measured after 48 hrs by MAGI assay. The settings on record: Human immunodeficiency virus 1, HeLa. The series is classed as functional, organism-based.

A short description of series [7]: Cytotoxicity against human HeLa cells expressing CD4-LTR by XTT assay. The series is classed as cell-based. The settings on record: read-out: TC50 (the source's name). (Tetrazolium assays rely on reduction of a dye to a coloured formazan, in cell work by metabolically active cells.)
Series [8] is described as follows: Therapeutic index, ratio of TC50 human HeLa cells expressing CD4-LTR to EC50 for HIV1 entry inhibition in human HeLa cells expressing CD4-LTR. The series is classed as cell-based. The settings on record: read-out: TI.
Series [9] relates to Human immunodeficiency virus 1. As to the kind of experiment: Antiviral activity against HIV1 infected in human CEM-SS cells assessed as inhibition of viral replication and virus-induced cytopathic effect by dose-response curve analysis. The series is classed as functional. The note with it: Human immunodeficiency virus 1, CEM-SS.
The test system of series [10] is Human immunodeficiency virus 2. Briefly: Inhibition of HIV2 reverse transcriptase.
Series [11] relates to Human immunodeficiency virus 2. Briefly: Antiviral activity against HIV2 assessed as inhibition of viral single round replication at early time point. The series is classed as functional, organism-based.
The test system of series [12] is Human immunodeficiency virus 2. As to the kind of experiment: Antiviral activity against HIV2 assessed as inhibition of viral replication treated at time points after viral entry into host cells. The series is classed as functional, organism-based.
Series [13] concerns Human immunodeficiency virus 2. As to the kind of experiment: Inhibition of HIV2 reverse transcriptase assessed as 32P-labeled GMP incorporation into nascent DNA strand at highest concentration.
Series [14] concerns Human immunodeficiency virus 1. As to the kind of experiment: Antiviral activity against HIV1 RF infected in human CEM-SS cells assessed as inhibition of virus-induced cytopathic effect by XTT assay. The series is classed as functional, organism-based. The note with it: Human immunodeficiency virus 1, RF.
A short description of series [15]: Cytotoxicity against human CEM-SS cells by XTT assay. The series is classed as cell-based. The note with it: read-out: TC50 (the source's name).
The mark [16] stands for this setting: Human immunodeficiency virus 2, ISOLATE ROD, CEM-SS, read-out: EC50.

Active and inactive are the calls of the source.

Turning to `Cc1cc(C)cc(Oc2c(C(C)C)c(=O)[nH]c(=O)n2CCC2CCCC2)c1`, the EC50 (as a rule, the midpoint of the concentration-response curve) in series [1] (cem-ss) is “Not Active”; in series [6], 20 nM; in series [14], 50 nM. The selectivity ratio was 145 in series [2] and 675 in series [8]. Also, the TI result in [3] is recorded as “Not Active”. For the same molecule, the results for the IC50 in [4] and in series [5] were 234 nM and 16200 nM, respectively. The CC50 in [7] is 12700 nM; in series [15], 7800 nM. Also, in series [9], the EC99 – broadly, the concentration needed for an effect of 99% – worked out at 1 µM. Further, the result in series [10], in [12] and in series [13] was inactive. Moreover, the result in series [11] was Active.

In the case of `Cc1cc(C)cc(C(=O)c2c(C(C)C)c(=O)[nH]c(=O)n2CC2CCC2)c1`, the EC50 was 400 nM in series [1] (setting [16]), 60 nM in series [6] and 12 nM in [14]. Also, the values for the selectivity ratio in [2], in series [3] and in series [8] were 2870, 86.4 and 606, respectively. The IC50 (commonly the concentration that gives 50% inhibition) in [4] is 68 nM; in series [5], 1810 nM. Further, the CC50 in series [7] and in series [15] was 34200 nM throughout. Moreover, in series [9], the EC99 was 1 µM. In addition, the result in [10], in series [12] and in [13] was inactive. For the same molecule, the outcome in [11] was Active.

Consider `Cc1cc(C)cc(Oc2c(C(C)C)c(=O)[nH]c(=O)n2CC2CCCC2)c1`, for which the results for the EC50 in series [1] (setting [16]), in series [6] and in series [14] were 1300 nM, 870 nM and 19 nM, respectively. For the same molecule, the selectivity ratio in series [2] came out at 1050; in series [3] it was 8.8; in series [8], 18. For the same molecule, the values for the IC50 in series [4] and in series [5] were 157 nM and 1140 nM, respectively. Also, the figures for the CC50 in series [7] and in series [15] were 15400 nM and 11800 nM, respectively. The EC99 in series [9] was 1 µM. For the same molecule, the outcome in series [10], in series [12] and in series [13] was inactive. In addition, the result in series [11] was Active.

Consider `CCc1c(Sc2cc(C)cc(C)c2)n(CC2CC2)c(=O)[nH]c1=O`, for which the EC50 was 100 nM in [1] (setting [16]), 9 nM in [6] and 0.8 nM in series [14]. For the same molecule, the selectivity ratio in [2] is 25500; in [3] it was 62.5; in series [8], 1580. The IC50 in series [4] turned out to be 18 nM; in [5], 257 nM. Also, the values for the CC50 in series [7] and in [15] were 14400 nM and 7600 nM, respectively. Besides, in series [9], the EC99 worked out at 1 µM. Moreover, the outcome in series [10], in series [12] and in series [13] was inactive. The outcome in series [11] was Active.

Take `CCc1c(C(=O)c2cc(C)cc(C)c2)n(CCC2CCCC2)c(=O)[nH]c1=O`: the EC50 result in series [1] (cem-ss) was “Not Active”; in series [6], 20 nM; in series [14], 10 nM. In addition, the figures for the selectivity ratio in series [2] and in series [8] were 2580 and 1230, respectively. Moreover, the TI entry in series [3] is “Not Active”. The IC50 is 119 nM in series [4] and over 271000 nM in [5]. For the same molecule, the CC50 in [7] amounted to 22200 nM; in [15] it was 25800 nM. Besides, in series [9], the EC99 stood at 1 µM. The result in series [10], in series [12] and in series [13] was inactive. For the same molecule, the outcome in [11] was Active.
